Data published in patent US20060115815A1 (priority 2002, published 2006).
Read-outs that look alike come from different tables or passages of the source.

Key:
[1] = molecular target: recombinant HIV-1 protease (Human immunodeficiency virus type 1 group M subtype B, UniProt P04585); assay: biochemical; type: biochemical
[2] = tested on: wild-type HIV-1 strain IIIB; assay: microbe, parasite or virus in culture; type: cell-based; conditions: read-out: EC50
[3] = tested on: mutant HIV-1 with I84V/L90M mutations in the protease gene; type: cell-based
[4] = fold difference in EC50, mutant vs. wild type

With `COc1ccc(S(=O)(=O)N(CC(C)C)CC(O)C(CN(C)Cc2ccc(P(=O)(O)OC(C)C(=O)O)cc2)NC(=O)OC2COC3OCCC23)cc1` (stereo not drawn) the Ki ([1]; read-out: Ki) was > 1000 pM.
`CC(C)CN(CC(O)C(Cc1ccccc1)NC(=O)OC1COC2OCCC12)S(=O)(=O)c1ccc(OCP(=O)(O)Oc2ccccc2)cc1` (stereo not drawn) gave a Ki ([1]; Ki) of 10 to 100 pM.
`CCOC(=O)C(C)OP(=O)(COc1ccc(C[C@H](NC(=O)O[C@H]2CO[C@H]3OCC[C@H]32)[C@H](O)CN(CC(C)C)S(=O)(=O)c2ccccc2)cc1)Oc1ccccc1` (stereo partly drawn) was tested, and the EC50 [2] was < 50 nM and the I84V/L90M fold change ([3]; I84V/L90M mutant) was “+ (>3 to ≦10)”.
With `COc1ccc(S(=O)(=O)N(CC(C)C)CC(O)C(Cc2ccc(C)cc2)NC(=O)OC2COC3OCCC23)cc1` (stereo not drawn) the EC50 [2] was < 50 nM and the I84V/L90M fold change ([3]; I84V/L90M mutant) was “+ (>3 to ≦10)”.
For `CC(C)CN(CC(O)C(Cc1ccc(OCP(=O)(O)OC(C)C(=O)O)cc1)NC(=O)OC1COC2OCCC12)S(=O)(=O)c1ccc(CO)cc1` (stereo not drawn), the Ki ([1]; read-out: Ki) was 10 to 100 pM.
For `Cc1ccc(C(=O)N[C@@H](Cc2ccc(OCP(=O)(OCc3ccccc3)OCc3ccccc3)cc2)[C@H](O)CN(CC(C)C)S(=O)(=O)c2ccc(N)cc2)cc1O`, the EC50 [2] was 50 to 500 nM and the I84V/L90M fold change ([3]; I84V/L90M mutant) was “+ (>3 to ≦10)”.
`CC(C)CN(C[C@@H](O)[C@H](Cc1ccc(OCP(=O)(OCc2ccccc2)OC(C)C(=O)OCc2ccccc2)cc1)NC(=O)O[C@H]1CO[C@H]2OCC[C@H]21)S(=O)(=O)c1ccc(F)cc1` (stereo partly drawn) was tested, and the EC50 [2] was 50 to 500 nM and the I84V/L90M fold change ([3]; I84V/L90M mutant) was “+ (>3 to ≦10)”.
For `COc1ccc(S(=O)(=O)N(CC(C)C)CC(O)C(Cc2ccc(NCP(=O)(NC(C)C(=O)OC(C)C)Oc3ccccc3)cc2)NC(=O)OC2COC3OCCC23)cc1` (stereo not drawn) [drawing 705], the Ki ([1]; Ki (pM), class symbols, Table 10) was < 10 pM.
With `COc1ccc(S(=O)(=O)N(CC(C)C)CC(O)C(Cc2ccc(O)cc2)NC(=O)OC2COC3OCCC23)cc1` (stereo not drawn) the EC50 [2] was < 50 nM and the I84V/L90M fold change ([3]; I84V/L90M mutant) was “— (≦3)”.
With `CCOC(=O)C(C)OP(=O)(Cc1ccc2c(c1)CCN(C[C@H](NC(=O)O[C@H]1CO[C@H]3OCC[C@H]31)[C@H](O)CN(CC(C)C)S(=O)(=O)c1ccc(OC)cc1)C2)Oc1ccccc1` (stereo partly drawn) the EC50 [2] was 50 to 500 nM and the I84V/L90M fold change [3, 4] was “+ (>3 to ≦10)”.
For `CCCCOC(=O)C(CC)NP(=O)(COc1ccc(CC(NC(=O)OC2COC3OCCC23)C(O)CN(CC(C)C)S(=O)(=O)c2ccc(OC)cc2)cc1)NC(CC)C(=O)OCCCC` (stereo not drawn) [drawing 655 R1=Aba-Bu R2=Aba-Bu], the I84V/L90M fold change [3, 4] was “+ (>3 to ≦10)”.
For `CCOP(=O)(CN1CC=C(CC(NC(=O)OC2COC3OCCC23)C(O)CN(CC(C)C)S(=O)(=O)c2ccc(OC)cc2)CC1)OCC` (stereo not drawn), the I84V/L90M fold change [3, 4] was “+ (>3 to ≦10)”.
For `CCOP(=O)(CCC1=CCN(CC(NC(=O)OC2COC3OCCC23)C(O)CN(CC(C)C)S(=O)(=O)c2ccc(OC)cc2)CC1)OCC` (stereo not drawn), the EC50 [2] was < 50 nM and the I84V/L90M fold change [3, 4] was “+ (>3 to ≦10)”.
With `CCOC(=O)C(C)OP(=O)(COc1ccc(C[C@H](NC(=O)O[C@H]2CO[C@H]3OCC[C@H]32)[C@H](O)CN(CC(C)C)S(=O)(=O)c2ccc(F)cc2)cc1)Oc1ccccc1` (stereo partly drawn) the EC50 [2] was < 50 nM and the I84V/L90M fold change ([3]; I84V/L90M mutant) was “+ (>3 to ≦10)”.
`COc1ccc(S(=O)(=O)N(CC(C)C)CC(O)C(CNc2ccc(CP(=O)(O)O)cc2)NC(=O)OC2COC3OCCC23)cc1` (stereo not drawn) was tested, and the I84V/L90M fold change [3, 4] was “+ (>3 to ≦10)”.
With `COc1ccc(S(=O)(=O)N(CC(O)C(Cc2ccccc2)NC(=O)OC2COC3OCCC23)CC(C)(C)CO)cc1` (stereo not drawn) the I84V/L90M fold change ([3]; I84V/L90M mutant) was “+++ (>30)”.
In the case of `COc1ccc(S(=O)(=O)N(C[C@@H](O)[C@H](Cc2ccccc2)NC(=O)O[C@H]2CO[C@H]3OCC[C@H]32)CC(C)(C)COCP(=O)(O)O)cc1`, the EC50 [2] is reported as 500 to 5000 nM and the I84V/L90M fold change ([3]; I84V/L90M mutant) is reported as “+++ (>30)”.
With `CC(C)CN(C[C@@H](O)[C@H](Cc1ccc(OCP(=O)(Oc2ccccc2)Oc2ccccc2)cc1)NC(=O)OC1CCOC1)S(=O)(=O)c1ccc(N)cc1` (stereo partly drawn) [NH2, phenol] the I84V/L90M fold change ([3]; I84V/L90M mutant) was “— (≦3)”.
With `CCOC(=O)C(C)OP(=O)(Oc1ccccc1)c1ccc(CN(C)CC(NC(=O)OC2COC3OCCC23)C(O)CN(CC(C)C)S(=O)(=O)c2ccc(OC)cc2)cc1` (stereo not drawn) the EC50 [2] was < 50 nM and the I84V/L90M fold change [3, 4] was “+ (>3 to ≦10)”.
`CCOP(=O)(Cc1ccc2c(c1)CCN(CC(NC(=O)OC1COC3OCCC13)C(O)CN(CC(C)C)S(=O)(=O)c1ccc(OC)cc1)C2)OCC` (stereo not drawn) was tested, and the I84V/L90M fold change [3, 4] was “+ (>3 to ≦10)”.
